Measured values: patent US9458164B2, “Pyrrolopyridazines as potassium ion channel inhibitors” (BRISTOL-MYERS SQUIBB COMPANY, priority 2013, dated 2016)

What follows are compounds tested against T1, human KV 1.5 (IKur) (Homo sapiens, UniProt P22460) (assay: Block of IKur current in patch clamped L-929 cells expressing human Kv1.5). Settings: L929, patch clamped mammalian L-929 cells stably expressing human Kv1.5, read-out: Percentage inhibition of Kv1.5 in L-929 cells at 0.3 μM.
T1 construct: expressed in transfected cells
T1 sequence (P22460 whole entry): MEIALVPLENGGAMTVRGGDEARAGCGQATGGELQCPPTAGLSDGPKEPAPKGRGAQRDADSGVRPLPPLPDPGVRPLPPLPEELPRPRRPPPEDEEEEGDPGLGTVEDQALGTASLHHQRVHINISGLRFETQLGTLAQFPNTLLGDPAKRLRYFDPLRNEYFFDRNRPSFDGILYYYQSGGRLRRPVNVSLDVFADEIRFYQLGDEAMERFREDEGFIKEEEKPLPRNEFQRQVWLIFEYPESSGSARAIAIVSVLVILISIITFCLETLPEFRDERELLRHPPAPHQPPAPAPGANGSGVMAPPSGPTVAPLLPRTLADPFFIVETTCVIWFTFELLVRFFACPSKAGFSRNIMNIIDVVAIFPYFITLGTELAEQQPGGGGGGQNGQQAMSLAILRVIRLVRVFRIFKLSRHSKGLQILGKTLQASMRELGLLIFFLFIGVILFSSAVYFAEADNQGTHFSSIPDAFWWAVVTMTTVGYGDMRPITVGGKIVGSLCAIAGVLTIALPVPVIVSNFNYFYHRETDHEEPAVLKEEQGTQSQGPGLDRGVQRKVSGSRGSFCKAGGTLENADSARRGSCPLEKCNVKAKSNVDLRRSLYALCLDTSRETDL
Assay type: cell-based
Excerpt: Assays to determine the degree of activity of a compound as an IKur inhibitor are well known in the art and are described in references such as J. Gen. Physiol., 101(4):513-543 (April 1993), and Br. J. Pharmacol., 115(2):267-274 (May 1995).
Synders, D. J. et al., “A rapidly activating and slowly inactivating potassium channel cloned from human heart: functional analysis after stable mammalian cell culture expression”, J. Gen. Physiol., 101:513-543 (1993). • 2. Zhou, Z. et al., “Block of HERG potassium channels by the antihistamine astemizole and its metabolites desmethylastemizole and norastemizole”, J. Cardiovasc. Electrophysiol., 10(6):836-843 (1999).

inhibition at 0.3 µM | SMILES
99% | NS(=O)(=O)c1cncc(-c2cc(NCc3ccccc3)c3c(-c4ccccc4)ccn3n2)c1 [Example 1, 5-(4-(Benzylamino)-5-phenylpyrrolo[1,2-b]pyridazin-2-yl)pyridine-3-sulfonamide]
98% | CS(=O)(=O)Nc1cncc(-c2cc(NCc3ccccc3)c3c(-c4ccccc4)ccn3n2)c1 [Example 4, N-(5-(4-(Benzylamino)-5-phenylpyrrolo[1,2-b]pyridazin-2-yl)pyridin-3-yl)methanesulfonamide]
95% | NS(=O)(=O)c1cncc(-c2cc(NCc3ccccc3)c3c(-c4cccc(F)c4)ccn3n2)c1 [Example 6, 5-(4-(Benzylamino)-5-(3-fluorophenyl)pyrrolo[1,2-b]pyridazin-2-yl)-pyridine-3-sulfonamide]

Continued, compound first:

SMILES | inhibition at 0.3 µM
CC(=O)NS(=O)(=O)c1cncc(-c2cc(NCc3ccccc3)c3c(-c4ccccc4)ccn3n2)c1 [Example 2, N-((5-(4-(Benzylamino)-5-phenylpyrrolo[1,2-b]pyridazin-2-yl)pyridin-3-yl)sulfonyl)acetamide] | 37%
CC(=O)Nc1cncc(-c2cc(NCc3ccccc3)c3c(-c4ccccc4)ccn3n2)c1 [Example 3, N-(5-(4-(Benzylamino)-5-phenylpyrrolo[1,2-b]pyridazin-2-yl)pyridin-3-yl)acetamide] | 98%
CCOC(=O)c1cncc(-c2cc(NCc3ccccc3)c3c(-c4cncc(C(=O)OCC)c4)ccn3n2)c1 [Example 5, Diethyl 5,5′-(4-(benzylamino)pyrrolo[1,2-b]pyridazine-2,5-diyl)dinicotinate] | 34%
